According to PubChem BioAssay (NCI):
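All cell lines were grown in 96-well plates and treated with compound for 48 hours. At the TGI there is no net growth.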

Assays:
Assay in all cases: growth of human tumour cells (NCI), 48 h
[1] = system: 786-0 renal
[2] = system: A498 renal
[3] = system: A549 NSCLC
[4] = system: ACHN renal
[5] = system: BT-549 breast
[6] = system: CAKI-1 renal
[7] = system: CCRF-CEM leukemia
[8] = system: COLO 205 colon
[9] = system: DU-145 prostate
[10] = system: EKVX NSCLC
[11] = system: HCT-116 colon
[12] = system: HCT-15 colon
[13] = system: HOP-62 NSCLC
[14] = system: HS 578T breast
[15] = system: HT29 colon
[16] = system: IGROV1 ovarian
[17] = system: K-562 leukemia
[18] = system: KM12 colon
[19] = system: LOX IMVI melanoma
[20] = system: M14 melanoma
[21] = system: MALME-3M melanoma
[22] = system: MCF7 breast
[23] = system: MDA-MB-231 breast
[24] = system: MDA-MB-435
[25] = system: MDA-N
[26] = system: MOLT-4 leukemia
[27] = system: NCI-H226 lung
[28] = system: NCI-H23 lung
[29] = system: NCI-H522 lung
[30] = system: NCI/ADR-RES ovarian
[31] = system: OVCAR-3 ovarian
[32] = system: OVCAR-4 ovarian
[33] = system: OVCAR-5 ovarian
[34] = system: OVCAR-8 ovarian
[35] = system: PC-3 prostate
[36] = system: RPMI-8226 leukemia
[37] = system: RXF 393 renal
[38] = system: SF-295 CNS
[39] = system: SF-539 CNS
[40] = system: SK-MEL-2 melanoma
[41] = system: SK-MEL-28 melanoma
[42] = system: SK-MEL-5 melanoma
[43] = system: SK-OV-3 ovarian
[44] = system: SN12C renal
[45] = system: SNB-19 CNS
[46] = system: SNB-75 CNS
[47] = system: SR leukemia
[48] = system: SW-620 colon
[49] = system: T-47D breast
[50] = system: TK-10 renal
[51] = system: U251 CNS
[52] = system: UACC-257 melanoma
[53] = system: UACC-62 melanoma
[54] = system: UO-31 renal

Measured: TGI

C[N+]1([O-])[C@H]2CC(OC(=O)[C@H](CO)c3ccccc3)C[C@H]1[C@H]1O[C@H]12 (some centres undefined)
> 100 µM: all assays above
